Experimental data taken from patent publication US20100197765A1, “METHOD FOR PROMOTING THE EXPRESSION OF P53, AND P53 EXPRESSION PROMOTER FOR USE IN THE METHOD” (THE UNIVERSITY OF TOKUSHIMA, priority 2007, published 2010).

Legend:
HCT116 cells [1] = test: p53 mRNA, vegf IresRNA and vegf mRNA in HCT116 cells exposed to genotoxic stress (Northern); format: cell-based, human
Experimental: HCT116 cells (parent cells) were exposed to genotoxic stress that upregulates the expression of p53 mRNA. […] Also, HCT116 cells were exposed to UV-B for 1 minute. Then, after placing them under non-exposed conditions for a predetermined time (6, 12 hours), the expressions were examined in the same manner as in the above.

[2] = tested on: noxa mRNA, puma mRNA, and p21 mRNA; test: expression of mRNAs induced in p53 pathways in HepG2 cells (Northern); format: cell-based, human; conditions: control siRNA HepG2 cells, 5-FU 30 μmol/L, 16 hours
Experimental: In the same manner, HepG2 cells transfected with each type of the vectors were treated for 16 hours in the presence of 5-FU (30 μmol/L) (+) or the absence of 5-FU (−). With respect to the treated cells, expression of noxa mRNA, puma mRNA, and p21 mRNA induced in p53 pathways was analyzed by the Northern blotting. […] In FIG. 1D, the first row from the top indicates expression of noxa mRNA, the second row indicates expression of puma mRNA, the third row indicates expression of p21 mRNA, and the fourth row indicates expression of gapdh mRNA. Definitions of the lanes in FIG. 1D are the same as those of FIG. 1C.

HepG2 cells = test: apoptosis (Apoptotic evaluation 1) of siRNA-expressing HepG2 cells treated with 5-FU; format: cell-based, human; conditions: control siRNA-expressing HepG2 cells treated with 5-FU
Experimental: Objective cells were treated with various anticancer agents, and then incubated with trypsin/EDTA to prepare cell suspensions. The cell suspensions were centrifuged and supernatants thereof were removed. Thereafter, the cell suspensions each were immobilized and stained with a solution of formaldehyde of 3.7%, Nonidet P40 of 0.5%, and 10 μg/mL of Hoechst33258 (Invitrogen) in PBS. […] The counting was performed with respect to at least 300 cells in one measurement.
Each type of the recombinant vectors was transfected into HepG2 cells for 18 hours in the same manner as in the above-described item (1). Each type of the transfection cells was treated with an anticancer agent “5-FU” having a predetermined concentration (0, 10, 30 μmol/L) for 60 hours. Then, the apoptosis (%) of the treated cells was examined according to “Apoptosis evaluation 1”. FIG. 1B is a graph showing apoptosis (%) in each type of the cells treated with 5-FU having a predetermined concentration (means±SD, n=3).

HCT116 cells [3] = test: apoptosis of siRNA-expressing HCT116 cells treated with low-concentration anticancer agents, with or without rVEGF; format: cell-based, human; conditions: HCT116 not expressing siRNA (NT) and control siRNA cells, low concentrations, 60 hours
Experimental: The recombinant vectors that express vegf siRNA#1 and #2 and the vectors that express control siRNA were transfected into HCT116 cells (parent cells, wild-type p53). As a control cell, an HCT116 cell not transfected with a recombinant vector that expresses siRNA was used. These four types of cells were treated in the presence or absence of various anticancer agents having the final concentrations as described below for 60 hours. As the anticancer agent, etoposide (20 μmol/L), doxorubicin (170 nmol/L), and 5-FU (40 μmol/L) were used. With respect to the treated cells, apoptosis (%) was quantified in the same manner as in Example A1.
UTR RNA and function of VEGF protein. With the aim of clarifying an effect of blocking the function of vegf 5′ UTR RNA, recombinant VEGF protein (R&D systems, hereinafter referred to as “rVEGF”) was added to a culture supernatant of cells transfected with vegf siRNA in order to add VEGF protein that is decreased due to siRNA. […] Therefore, in Example A9, 1 ng/ml of rVEGF protein was added to the four types of cells. […] Then, these transfection cells were treated with anticancer agents in the same manner as described above.

p53-deleted cells HCT116 = test: apoptosis (TUNEL) in p53-deleted HCT116 cells with vegf siRNA and 5-FU; format: cell-based, human; conditions: p53-deleted cells HCT116, treatment with 5-FU
Experimental: Apoptotic cells were evaluated by a TUNEL staining method using in situ Cell Death Detection kit (Roche Diagnostic). […] The counting was performed with respect to at least 300 cells in one measurement.
Various types of cells were treated with 5-FU, which is an anticancer agent inducing apoptosis in a p53-dependent manner, and the sensitivity to apoptosis was analyzed. The vegf siRNA#1 vectors expressing siRNA#1, the vegf siRNA #2 vectors expressing siRNA #2, and the control siRNA vectors described above respectively were transfected into HCT 116 (parent cells) and p53-deleted cells HCT116. Then, the cells after 18 hours from the transfection was treated for 60 hours in the presence of […] of 5-FU (+) or in the absence of 5-FU (−). The proportion (%) of apoptosis positive cells in the thus-treated cells was calculated based on “Apoptotic evaluation 2” above (means±SD, n=4).

p53 mRNA [4] = test: cell-free protein synthesis reaction after heteroduplex formation; format: biochemical, human; conditions: cell-free protein synthesis with p53 mRNA/5′ UTR RNA heteroduplex, cycloheximide added
Experimental: (5) Detection of p53 mRNA and its Degradation Product In the same manner as in the above-described item (3), mutant 5′ UTR RNA or 5′ UTR was incubated with p53 mRNA. As described above, mutant 5′ UTR RNA and p53 mRNA form a heteroduplex by incubation. Then, using the treated RNA samples, in the presence or absence of cycloheximide (final concentration of […]) or in the presence of purified ribosome prepared by a sucrose density-gradient centrifugation method, a cell-free protein synthesis reaction was performed. The cell-free protein synthesis was carried out by making reference to the research paper (Huez, I. et al. Mol. Cell. Biol. 18, 6178-6190 (1998)) or using Wako PURE system (trade name, Wako Chemical) following the specifications thereof.
In the same manner as in the above-described item (4), RNAs each were incubated in the combination shown in FIG. 8E, and cell-free protein synthesis was carried out. In this state, [^35S] methionine coexisted in a reaction solution of cell-free protein synthesis. Then, p53 protein synthesized in vitro was separated by SDS-PAGE using a polyacrylamide gel of 12%, and a dried gel was subjected to an autoradiography. FIG. 8E is an autoradiography showing synthesis of p53 protein in a reaction solution of cell-free protein in the presence of vegf 5′ UTR. […]

p53 mRNA [5] = test: degradation/silencing of exogenous p53 mRNA in H1299 cells (Northern); format: cell-based, human; conditions: H1299, cycloheximide 50 μg/ml, 16 hours
Experimental: In the same manner as in Example A4, the p53 expression vectors and each type of the recombinant plasmid vectors, pVC and pVCmut5′, or empty vectors (mock) were cotransfected into H1299 cells (p53 null), and the cells were cultured for 12 hours. RNA was collected from each type of the transfection cells, the RNA was separated by a denatured agarose gel electrophoresis, and exogenous p53 mRNA and its degradation product were detected by the Northern blotting. FIG. 7A is a photograph showing exogenous p53 mRNA and its degradation product in each type of the cells. In FIG. 7A, the lane 1 “mock” indicates the result obtained regarding the cells transfected with the empty vectors, the lane 2 “VEGF mut5′” indicates the result obtained regarding the cells transfected with pVCmut5′, and the lane 3 “VEGF 5” indicates the result obtained regarding the cells transfected with pVC. The size (nt) of an RNA marker (Ambion, Inc.) was shown on the left of the photograph of blotting.
First, the p53 expression vectors and each type of the recombinant plasmid vectors, pVC and pVCmut5′, were cotransfected into H1299 cells (p53 null), and the cells were cultured for 8 hours. […] With respect to the treated cells, the expression level of p53 mRNA was analyzed by the Northern blotting. […]

vegf IresRNA = test: p53 mRNA in p53-deleted HCT116 cotransfected with p53 vector, vegf IresRNA vector and decoy or antisense LNA-DNA (Northern); format: cell-based, human
[6] = tested on: HCT116 cells (wild-type p53); test: survival rate of HCT116 cells transfected with decoy or antisense LNA-DNA after 5-FU; format: cell-based, human; conditions: after 5-FU (40 μmol/L)
Experimental: The wild-type and mutant-type p53 decoy LNA-DNA were transfected into HCT116 cells (wild-type p53). The cells transfected with the decoys were cultured in McCoy's 5A medium containing 10% fetal bovine serum and 100 μg/ml (100 units/ml) of streptomycin, and the relative value of the survival rate (%) was calculated according to “Apoptosis evaluation 2”. The relative value was obtained with the number of viable cells of 5-FU untreated cells being considered as 100%. In addition, the survival rate of HCT cells (p53) not transfected with the decoys also was calculated in the same manner as described above.
The wild-type and mutant-type vegf antisenses were transfected into HCT116 cells (wild-type p53). With respect to the cells transfected with the antisenses, the relative value of the survival rate (%) was calculated in the same manner as in Example C4. The relative value was obtained with the number of viable cells of 5-FU untreated cells being considered as 100%. In addition, the survival rate of HCT cells (wild-type p53) not transfected with the vegf antisenses was also calculated in the same manner as described above.

[7] = vegf antisense LNA-DNA cotransfected with vegf IresRNA and p53 expression vectors

**Q.** O=c1[nH]cc(F)c(=O)[nH]1 [5-FU, 5-fluorouracil, reference compound] was tested. Which “vegf IresRNA and vegf mRNA expression” value (HCT116 cells [1]; HCT116, 5-FU 80 μmol/L or MMC 6 μg/ml, 0, 6, 12 hours) did it give?
**A.** Its value is “increased markedly”.

**Q.** And the “expression of the p53 mRNA” value (HCT116 cells [1]; HCT116, 5-FU 80 μmol/L, MMC 6 μg/ml or cisplatin 5 μg/ml, 0, 6, 12 hours)?
**A.** Its value is “suppressed”.

**Q.** What about the “expression of p21 mRNA” value [2] of the same compound?
**A.** The value was “slightly induced”.

**Q.** And the proportion of apoptosis (HepG2 cells)?
**A.** The proportion of apoptosis was “slightly increased”.

**Q.** And the “significant enhancement of apoptosis” value (HCT116 cells [3])?
**A.** Its value is “not induced”.

**Q.** And the proportion of apoptosis (p53-deleted cells HCT116)?
**A.** The proportion of apoptosis was “increased slightly”.

**Q.** Which results are given for C[C@@H]1C[C@@H]([C@H](O)CC2CC(=O)NC(=O)C2)C(=O)[C@@H](C)C1 [cycloheximide]?
**A.** effect on partial degradation of p53 mRNA (p53 mRNA [4]): completely blocked; effect on silencing of p53 mRNA due to vegf 5′ UTR (p53 mRNA [5]): marked inhibition of silencing

**Q.** With COc1cccc2c1C(=O)c1c(O)c3c(c(O)c1C2=O)C[C@@](O)(C(=O)CO)C[C@@H]3O[C@H]1C[C@H](N)[C@H](O)[C@H](C)O1 [doxorubicin, reference compound] as the compound, how does the “significant enhancement of apoptosis” value (HCT116 cells [3]) read?
**A.** Its value is “not induced”.

**Q.** With COc1cc([C@@H]2c3cc4c(cc3[C@@H](O[C@@H]3O[C@@H]5CO[C@@H](C)O[C@H]5[C@H](O)[C@H]3O)[C@H]3COC(=O)[C@H]23)OCO4)cc(OC)c1O [etoposide, reference compound] as the compound, how does the “significant enhancement of apoptosis” value (HCT116 cells [3]) read?
**A.** The value was “not induced”.

**Q.** For “mutant-type p53 decoy: LNA-DNA of the p53 decoy sequence introduced with mutation, SEQ ID NO: 94, 5′-cccGCcCACCcGGctgGTcca-3′ (DNA CCCGCCCACCCGGCTGGTCCA; LNA-DNA mixmer, LNA positions not given here)”, which “expression amount of p53 mRNA” value (vegf IresRNA; p53 decoy LNA-DNA cotransfected with vegf IresRNA and p53 expression vectors) is on record?
**A.** Its value is “small”.

**Q.** Which “expression amount of p53 mRNA” value (vegf IresRNA; [7]) does the source give for “mutant-type vegf antisense: antisense LNA-DNA having the sequence introduced with mutation, SEQ ID NO: 95, 5′-cccGCcCGggTcGTcCgcAccA-3′ (antisense CCCGCCCGGGTCGTCCGCACCA; LNA-DNA mixmer, LNA positions not given here)” here?
**A.** The value was “small”.

**Q.** “wild-type p53 decoy: LNA-DNA corresponding to a sequence from base 462 to base 482 of p53 mRNA, SEQ ID NO: 93, 5′-ccccgcgtggcccctgcacca-3′ (DNA CCCCGCGTGGCCCCTGCACCA; LNA-DNA mixmer, LNA positions not given here)” was tested. Which “survival rate of cells” value ([6]; p53 decoy, vs no decoy and mutant-type decoy) did it give?
**A.** The value was “decreased”.

**Q.** For “wild-type vegf antisense: antisense LNA-DNA complementary to bases 693 to 714 of vegf IresRNA, SEQ ID NO: 74, 5′-ccccgcgcggaccacggctcct-3′ (antisense CCCCGCGCGGACCACGGCTCCT; LNA-DNA chimera, LNA positions not given here)”, which “expression amount of p53 mRNA” value (vegf IresRNA; [7]) is on record?
**A.** The value was “marked expression amount”.

**Q.** And the “survival rate of cells” value ([6]; vegf antisense, vs cells (none) not transfected)?
**A.** Its value is “markedly decreased”.
